Source: PubChem BioAssay (NCI)
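These data come from cells grown in 96-well plates and exposed to compound for 48 hours at five concentrations. At the GI50, growth is halved. TGI: total growth inhibition.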

Assays:
Test in all cases: DTP human tumour cell line panel, 48 h
COLO 205 colon = test system: COLO 205 colon
HCC-2998 colon = test system: HCC-2998 colon
HT29 colon = test system: HT29 colon
NCI-H522 lung = test system: NCI-H522 lung
CCRF-CEM leukemia = test system: CCRF-CEM leukemia
MOLT-4 leukemia = test system: MOLT-4 leukemia
SK-OV-3 ovarian = test system: SK-OV-3 ovarian
SK-MEL-5 melanoma = test system: SK-MEL-5 melanoma
MDA-N = test system: MDA-N
SN12C renal = test system: SN12C renal

Compound | TGI (COLO 205 colon) | TGI (HCC-2998 colon) | TGI (HT29 colon) | TGI (NCI-H522 lung) | TGI (CCRF-CEM leukemia) | TGI (MOLT-4 leukemia) | TGI (SK-OV-3 ovarian) | TGI (SK-MEL-5 melanoma) | TGI (MDA-N) | TGI (SN12C renal) | GI50 (COLO 205 colon) | GI50 (HCC-2998 colon) | GI50 (HT29 colon) | GI50 (NCI-H522 lung) | GI50 (CCRF-CEM leukemia) | GI50 (MOLT-4 leukemia) | GI50 (SN12C renal) | GI50 (SK-OV-3 ovarian) | GI50 (SK-MEL-5 melanoma)
O=C(Cc1nc2c3c(ccc2[nH]c1=O)C(=O)c1ccccc1C3=O)C(=O)Nc1ccccc1[N+](=O)[O-] | 33.5 µM | 36.8 µM | 41.7 µM | 18 µM | 11.6 µM | 23.2 µM | > 100 µM | 37.3 µM | – | – | – | – | – | – | – | – | – | – | –
O=C(NC(COC(=O)C(Cc1ccccc1)NC(=O)c1ccccc1)Cc1ccccc1)c1ccccc1 (stereo not given) | – | > 50 µM | > 50 µM | > 50 µM | – | > 50 µM | > 50 µM | – | – | – | – | – | – | – | – | – | – | – | –
CC(C)(C)OC(=O)NCCC(N)=S | > 100 µM | – | > 100 µM | – | > 100 µM | > 100 µM | > 100 µM | > 100 µM | > 100 µM | > 100 µM | – | – | – | – | – | – | – | – | –
Oc1[nH]c2ccc(Br)cc2c1N=NC(=S)Nc1ccc(F)cc1 | 22.4 µM | – | 28 µM | 38 µM | – | 29.6 µM | 33.4 µM | 24.7 µM | 14.4 µM | > 100 µM | – | – | – | – | – | – | – | – | –
CC1=C2C(=C[C@H]3[C@]4(C)CCCC(C)(C)[C@H]4CC[C@]34O[C@H]24)OC1=O | > 100 µM | > 100 µM | > 100 µM | > 100 µM | – | > 100 µM | > 100 µM | > 100 µM | > 100 µM | > 100 µM | – | – | – | – | – | – | – | – | –
N#CC1=C(c2ccccc2)NNC(c2ccc(Cl)cc2)CC1=O (stereo not given) | – | > 100 µM | > 100 µM | 51.7 µM | – | > 100 µM | > 100 µM | 68.2 µM | – | > 100 µM | – | – | – | – | – | – | – | – | –
O=C1Sc2ccccc2C(=O)N2CSCC12 (stereo not given) | > 100 µM | > 100 µM | > 100 µM | > 100 µM | > 100 µM | > 100 µM | > 100 µM | > 100 µM | – | > 100 µM | – | – | – | – | – | – | – | – | –
CSC(=Nc1ccccc1)N(c1ccccc1)c1nc(=[N+](C)C)ss1 | 3.88 µM | 20.7 µM | 0.383 µM | 1.72 µM | 4.48 µM | 7.54 µM | 38.5 µM | 5.15 µM | – | 14.7 µM | – | – | – | – | – | – | – | – | –
COc1cc2nc(-c3cccs3)oc(=O)c2cc1OC | > 100 µM | – | > 100 µM | > 100 µM | > 100 µM | > 100 µM | > 100 µM | > 100 µM | – | > 100 µM | – | – | – | – | – | – | – | – | –
COc1cc2cc(Oc3ccc(NC(=O)c4cc(C(F)(F)F)cc(C(F)(F)F)c4)cc3)c(C)nc2cc1OC | > 50 µM | > 50 µM | > 50 µM | > 50 µM | > 50 µM | > 50 µM | > 50 µM | > 50 µM | – | > 50 µM | 3.05 µM | > 50 µM | > 50 µM | 2.01 µM | 2.32 µM | 3.71 µM | 3.49 µM | > 50 µM | 2.76 µM
COc1ccc(CC2c3c(cc(OC)c(OC)c3OC)CCN2C)cc1OC (stereo not given) | – | > 100 µM | > 100 µM | > 100 µM | > 100 µM | > 100 µM | – | > 100 µM | – | > 100 µM | – | – | – | – | – | – | – | – | –
CCOC(=O)c1nc2ccc(C(F)(F)F)cc2nc1Oc1ccc(C#N)cc1 | 88.5 µM | > 100 µM | 77.9 µM | – | > 100 µM | > 100 µM | 46 µM | > 100 µM | – | – | – | – | – | – | – | – | – | – | –
CC(=O)O[C@H]1C(=O)[C@@]2(C)[C@H]([C@H](OC(=O)c3ccc(F)cc3)[C@]3(O)C[C@H](OC(=O)[C@H](O)[C@@H](NC(=O)c4ccccc4)c4ccccc4)C(C)=C1C3(C)C)[C@]1(OC(C)=O)CO[C@@H]1C[C@@H]2O | > 25 µM | 0.174 µM | 3.85 µM | 0.585 µM | – | 2.6 µM | – | > 9.33 µM | 0.00496 µM | > 25 µM | – | – | – | – | – | – | – | – | –
C(=Nc1ccc(-c2nc3ccccc3o2)cc1)c1ccco1 | > 100 µM | – | > 100 µM | > 100 µM | – | > 100 µM | – | > 100 µM | > 100 µM | > 100 µM | – | – | – | – | – | – | – | – | –
CC12CCC3C(CCC4CC(OC(=O)Cc5ccc(N(CCCl)CCCl)cc5)CCC43C)C1CCC(=O)N2 (stereo not given) | 31.1 µM | 41.6 µM | 30.2 µM | 28.3 µM | 22.7 µM | 24.4 µM | 32.5 µM | 33.3 µM | – | 29.6 µM | – | – | – | – | – | – | – | – | –
COc1ccc(-c2oc(/C=N/NC(N)=S)c([N+](=O)[O-])c2-c2ccc(OC)c(OC)c2)cc1OC | > 100 µM | – | 51.7 µM | 65.3 µM | – | – | 69.3 µM | – | – | > 100 µM | – | – | – | – | – | – | – | – | –
O=c1[nH]cnc(NC2C=C(CO)C(O)C2O)c1[N+](=O)[O-] (stereo not given) | > 100 µM | > 100 µM | > 100 µM | > 100 µM | > 100 µM | > 100 µM | > 100 µM | > 100 µM | – | > 100 µM | – | – | – | – | – | – | – | – | –
CCCCNC(=S)N/N=C/c1cccc(C)n1 | > 100 µM | – | – | 41.8 µM | 40.2 µM | 55.1 µM | > 100 µM | > 100 µM | > 100 µM | > 100 µM | – | – | – | – | – | – | – | – | –
CCN(CC)CCCNC(=O)c1ccc([N+](=O)[O-])cc1O | > 100 µM | > 100 µM | > 100 µM | > 100 µM | > 100 µM | > 100 µM | > 100 µM | > 100 µM | – | > 100 µM | – | – | – | – | – | – | – | – | –
Cc1c(N2C(=O)C(Cl)C2c2ccc(Cl)cc2)c(=O)n(-c2ccccc2)n1C (stereo not given) | > 100 µM | – | > 100 µM | > 100 µM | > 100 µM | > 100 µM | > 100 µM | > 100 µM | 81.3 µM | > 100 µM | – | – | – | – | – | – | – | – | –
COc1ccc(/C=C2\C[C@H]3[C@@H]4CCC5=C/C(=N/O)CC[C@]5(C)[C@H]4CC[C@]3(C)\C2=N\O)cc1OC | – | > 100 µM | > 100 µM | > 100 µM | > 100 µM | 94.3 µM | > 100 µM | 14.9 µM | > 100 µM | > 100 µM | – | – | – | – | – | – | – | – | –
O=C1NCCS(=O)(=O)N[C@@H](CC2=CC=CCC2)C(=O)N2CCCC12 (stereo not given in full) | > 100 µM | > 100 µM | > 100 µM | > 100 µM | > 100 µM | > 100 µM | > 100 µM | > 100 µM | – | > 100 µM | – | – | – | – | – | – | – | – | –
